Test results published in ChEMBL document CHEMBL1201862, “PubChem BioAssay data set” (2004).
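Cultured in 96-well plates, cells were exposed to test compound for 48 hours across five concentrations. GI50 is the concentration that inhibits growth by half.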 Activity calls are given as the source filed them. No stated cut-off is given here; in the data, active = GI50 up to about 1.1 µM and inactive = higher. Where a SMILES comes first, the peptide text is derived from it. The star is where a group is joined. Boc = CC(C)(C)OC(=O)*

Experiments:
Test in all cases: growth of human tumour cells (NCI), 48 h
[1] = test system: 786-0
[2] = test system: BT-549
[3] = test system: ACHN
[4] = test system: OVCAR-8
[5] = test system: HCT-15
[6] = test system: MDA-MB-231
[7] = test system: CCRF-CEM
[8] = test system: COLO 205
[9] = test system: SK-MEL-28
[10] = test system: NCI-H460
[11] = test system: NCI-H226
[12] = test system: MDA-MB-435
[13] = test system: T47D
[14] = test system: SW-620
[15] = test system: DU-145
[16] = test system: NCI/ADR-RES
[17] = test system: A498
[18] = test system: TK-10
[19] = test system: HOP-92

| Compound | GI50 [1] | GI50 [2] | GI50 [3] | GI50 [4] | GI50 [5] [µM] | GI50 [6] | GI50 [7] | GI50 [8] | GI50 [9] | GI50 [10] | GI50 [11] | GI50 [12] | GI50 [13] | GI50 [14] | GI50 [15] | GI50 [16] | GI50 [17] | GI50 [18] | GI50 [19] |
| --- | --- | --- | --- | --- | --- | --- | --- | --- | --- | --- | --- | --- | --- | --- | --- | --- | --- | --- | --- |
| Cc1cccc(N2C(=O)C3c4[nH]c5ccccc5c4C4CCC(C(C)(C)C)CC4C3C2=O)c1 (stereo not given) | 3.63 µM (inactive) | 19 µM (inactive) | 4.95 µM (inactive) | 3.5 µM (inactive) | 29.4 | 9.53 µM (inactive) | 8.57 µM (inactive) | 11.9 µM (inactive) | 16.3 µM (inactive) | 6.19 µM (inactive) | 18.7 µM (inactive) | 15.2 µM (inactive) | 26.5 µM (inactive) | 11.8 µM (inactive) | 12.4 µM (inactive) | 15.7 µM (inactive) | 13.1 µM (inactive) | 14.2 µM (inactive) | – |
| COc1cc(/C=C2\CC3C4CC=C5C[C@@H](O)CC[C@]5(C)C4CC[C@]3(C)\C2=N\O)cc(OC)c1OC (stereo not given in full) | 4.66 µM (inactive) | 7 µM (inactive) | 3.2 µM (inactive) | 8.45 µM (inactive) | 3.88 | 7.31 µM (inactive) | 6.44 µM (inactive) | 3.73 µM (inactive) | 14.2 µM (inactive) | 4.99 µM (inactive) | 7.96 µM (inactive) | 5.12 µM (inactive) | 2.72 µM (inactive) | 16.7 µM (inactive) | 12.9 µM (inactive) | 7.6 µM (inactive) | 6.93 µM (inactive) | 7.53 µM (inactive) | 14.3 µM (inactive) |
| c1ccc2c(c1)C(=Nc1ccc(N=C3c4ccccc4-c4ccccc43)cc1)c1ccccc1-2 | > 100 µM (inactive) | > 100 µM (inactive) | – | > 100 µM (inactive) | > 100 | > 100 µM (inactive) | > 100 µM (inactive) | > 100 µM (inactive) | – | > 100 µM (inactive) | > 100 µM (inactive) | > 100 µM (inactive) | > 100 µM (inactive) | > 100 µM (inactive) | > 100 µM (inactive) | > 100 µM (inactive) | > 100 µM (inactive) | > 100 µM (inactive) | > 100 µM (inactive) |
| O=C1NC(c2ccccc2Cl)Nc2ccccc21 (stereo not given) | 28.4 µM (inactive) | 28.4 µM (inactive) | 29.5 µM (inactive) | 38.6 µM (inactive) | 3.9 | 33.2 µM (inactive) | 11.4 µM (inactive) | 8.49 µM (inactive) | 24.1 µM (inactive) | 13.9 µM (inactive) | 41.8 µM (inactive) | 1.65 µM (inactive) | 48.5 µM (inactive) | 3.09 µM (inactive) | 30.8 µM (inactive) | 5.61 µM (inactive) | 30.8 µM (inactive) | > 53.1 µM (inactive) | 44.4 µM (inactive) |
| CCCCCCN(CCCCCC)CCC(=O)c1ccc2cc(Br)c3ccccc3c2c1 | 24.9 µM (inactive) | 20.3 µM (inactive) | 54.1 µM (inactive) | 31.7 µM (inactive) | 33.8 | 26.7 µM (inactive) | – | 22.6 µM (inactive) | 77.1 µM (inactive) | 30.5 µM (inactive) | 69.7 µM (inactive) | 26.1 µM (inactive) | 23.3 µM (inactive) | 43.7 µM (inactive) | 52.2 µM (inactive) | 48.5 µM (inactive) | 36.3 µM (inactive) | 26.4 µM (inactive) | 19.4 µM (inactive) |
| CC(C)CCCC(C)[C@H]1CC[C@H]2n3c(nc4ccccc43)CCC[C@]12C (stereo not given in full) | 17.5 µM (inactive) | 19.2 µM (inactive) | – | 17.1 µM (inactive) | 15 | 16 µM (inactive) | 18.3 µM (inactive) | 11.1 µM (inactive) | 18.6 µM (inactive) | 15.9 µM (inactive) | 15.6 µM (inactive) | 19.3 µM (inactive) | 15.4 µM (inactive) | 17.7 µM (inactive) | 22 µM (inactive) | 18.2 µM (inactive) | 13.2 µM (inactive) | 17.4 µM (inactive) | 17.7 µM (inactive) |
| CCCCCCCCCCNC(=O)CCC(NC(=O)c1ccc(N(C)Cc2cnc3nc(N)nc(N)c3n2)cc1)C(=O)NCCCCCCCCCC (stereo not given) | 3.05 µM (inactive) | 9.27 µM (inactive) | 44.7 µM (inactive) | 8.45 µM (inactive) | 17.9 | 3.57 µM (inactive) | 2.53 µM (inactive) | 7.01 µM (inactive) | 8.79 µM (inactive) | 4.06 µM (inactive) | 18.8 µM (inactive) | 4.2 µM (inactive) | 11.6 µM (inactive) | 3.13 µM (inactive) | 20.1 µM (inactive) | > 90.6 µM (inactive) | 30.5 µM (inactive) | 55.8 µM (inactive) | 9.1 µM (inactive) |
| CN(C)C(=S)N/N=C(\C(=N/NC(=S)N(C)C)c1ccccn1)c1ccccn1 | 10.4 µM (inactive) | 14.6 µM (inactive) | 6.61 µM (inactive) | 7.14 µM (inactive) | 6.81 | 14.7 µM (inactive) | – | 2.17 µM (inactive) | 16.4 µM (inactive) | 2.56 µM (inactive) | 12.6 µM (inactive) | 10.1 µM (inactive) | 3.21 µM (inactive) | 6.24 µM (inactive) | 4.21 µM (inactive) | 20.7 µM (inactive) | 14.8 µM (inactive) | 8.11 µM (inactive) | 9.35 µM (inactive) |
| Oc1ccc(Br)cc1/C=N/C1CCCCC1 | 22.9 µM (inactive) | 35.3 µM (inactive) | 65.5 µM (inactive) | 20.5 µM (inactive) | 5.56 | 36.3 µM (inactive) | 5.37 µM (inactive) | 65.5 µM (inactive) | 43.3 µM (inactive) | 71.4 µM (inactive) | – | 28.2 µM (inactive) | 4.12 µM (inactive) | 24.8 µM (inactive) | 21.4 µM (inactive) | 38.7 µM (inactive) | > 100 µM (inactive) | > 100 µM (inactive) | 72.1 µM (inactive) |
| CN(C)CCNc1ccc(NCC[N+](C)(C)Cc2ccc([N+](=O)[O-])cc2)c2c1C(=O)c1ccccc1C2=O | 16.2 µM (inactive) | > 25 µM (inactive) | 12.1 µM (inactive) | > 25 µM (inactive) | – | 4.86 µM (inactive) | – | 7.28 µM (inactive) | > 25 µM (inactive) | – | 23.4 µM (inactive) | > 25 µM (inactive) | > 25 µM (inactive) | 13.3 µM (inactive) | 14.1 µM (inactive) | > 25 µM (inactive) | 17.5 µM (inactive) | > 25 µM (inactive) | > 25 µM (inactive) |
| CSc1ccc(C=C2N=C(c3ccccc3)N(c3cc(C(=O)c4ccccc4)ccc3N3C(=O)/C(=C/c4ccc(SC)cc4)N=C3c3ccccc3)C2=O)cc1 | 69.3 µM (inactive) | 45.6 µM (inactive) | 52.4 µM (inactive) | 39.4 µM (inactive) | 61.4 | 80.5 µM (inactive) | 5.69 µM (inactive) | 56.9 µM (inactive) | > 100 µM (inactive) | 51.2 µM (inactive) | – | 31.8 µM (inactive) | 34.5 µM (inactive) | > 100 µM (inactive) | 49.9 µM (inactive) | 46 µM (inactive) | 71.8 µM (inactive) | 51.1 µM (inactive) | 80.7 µM (inactive) |
| COc1ccc(-c2nc(N)c(C#N)c3c2CCS(=O)(=O)c2ccc(C)cc2-3)cc1OC | 29 µM (inactive) | 21.8 µM (inactive) | 48.4 µM (inactive) | 74.3 µM (inactive) | 16.1 | 28.6 µM (inactive) | – | 27.8 µM (inactive) | 55.2 µM (inactive) | 28.2 µM (inactive) | 77.1 µM (inactive) | 15.1 µM (inactive) | 39.1 µM (inactive) | 34.9 µM (inactive) | 29 µM (inactive) | 43.7 µM (inactive) | 23.3 µM (inactive) | 56.1 µM (inactive) | 38.5 µM (inactive) |
| C=CC(OC(C)=O)c1ccc(OC(C)=O)cc1 (stereo not given) | 1.56 µM (inactive) | 8.93 µM (inactive) | 2.54 µM (inactive) | 3.94 µM (inactive) | 8.24 | 3.3 µM (inactive) | – | 3.85 µM (inactive) | 9.27 µM (inactive) | 17.1 µM (inactive) | 15.7 µM (inactive) | 3.45 µM (inactive) | 2.72 µM (inactive) | 2.21 µM (inactive) | 10.4 µM (inactive) | 7.01 µM (inactive) | 12 µM (inactive) | 2.17 µM (inactive) | 8.47 µM (inactive) |
| CC(C)(C)OC(=O)NCC(=O)NCC(=O)NCC(=O)NCC(=O)O (Boc-GGGG-OH) | > 100 µM (inactive) | > 100 µM (inactive) | > 100 µM (inactive) | > 100 µM (inactive) | > 100 | > 100 µM (inactive) | > 100 µM (inactive) | > 100 µM (inactive) | > 100 µM (inactive) | > 100 µM (inactive) | – | > 100 µM (inactive) | > 100 µM (inactive) | > 100 µM (inactive) | > 100 µM (inactive) | > 100 µM (inactive) | > 100 µM (inactive) | > 100 µM (inactive) | > 100 µM (inactive) |
| CCN(CC)C(=S)SS(=O)(=O)c1ccc(Cl)cc1 | 29.9 µM (inactive) | 34.4 µM (inactive) | 33.2 µM (inactive) | 16.9 µM (inactive) | 31.3 | 34.9 µM (inactive) | – | 26.5 µM (inactive) | 17.9 µM (inactive) | 29 µM (inactive) | 62.7 µM (inactive) | 20.5 µM (inactive) | 46.2 µM (inactive) | 17.1 µM (inactive) | 27.3 µM (inactive) | 35.4 µM (inactive) | > 100 µM (inactive) | 67.8 µM (inactive) | 16.9 µM (inactive) |
